Measured values from the NIST ThermoML archive (doi:10.1021/je800088e).
Values joined by “and” are separate entries in the source; they are usually repeats but may differ in a detail not shown here. Equal entries are not always repeated. Numbers after ± are expanded uncertainties.

Details: 364.52 K; Liquid; Closed cell (Static) method

| SMILES | vapor or sublimation pressure |
| --- | --- |
| CCC(C)O (stereo unspecified) [butan-2-ol] | 74 ± 0.9 kPa |
| C/C=C\C [(Z)-2-butene] | 1190.5 ± 5.3 kPa and 1189.6 ± 5.2 kPa |
| CO [methanol] | 267.3 ± 1.4 kPa |
| CC(C)O [propan-2-ol] | 143.9 ± 1 kPa |
| CC(C)(C)O [2-methylpropan-2-ol] | 143 ± 1 kPa |

Same assay, conditions: 364.53 K; Liquid; Closed cell (Static) method

| SMILES | vapor or sublimation pressure |
| --- | --- |
| C/C=C\C [(Z)-2-butene] | 1190.7 ± 5.2 kPa |
